Test results as given in US20210221843A1, “EPHA2 AGONISTS AND USES THEREOF” (THE REGENTS OF THE UNIVERSITY OF CALIFORNIA, priority 2018, published 2021).
“Also recorded” adds a separate entry of the source. Starred links: 1 amine or outer side, 2 acyl side, 3 side chain; linkers in the order of their positions; H or OH if unused. Non-standard residues stand in square brackets, D forms with d. Residues, ends and D or L forms follow the SMILES beside them. *: point of attachment. Dap(4-FSB) = (S)-2-amino-3-(4-(fluorosulfonyl)benzamido)propanoic acid, O=C(NC[C@H](N[*:1])C(=O)[*:2])c1ccc(S(=O)(=O)F)cc1; 7‑MethoxyBenzofuranoic = N-terminus modified by (7-methoxybenzofuran-2-yl)-methanone, COc1cccc2cc(C(=O)*)oc12; Phenoxyacetyl(3-Cl,4-F) = O=C(COc1ccc(F)c(Cl)c1)*; Dap = NC[C@H](N)C(=O)O

Assays:
[1] = molecular target: EphA2-LBD (Homo sapiens, UniProt P29317); assay: DELFIA displacement assay (displacement of biotinylated 123B9 from EphA2-LBD)
[2] = molecular target: T1, EphA2 (Homo sapiens, UniProt P29317); assay: EphA2 receptor phosphorylation assay in HEK293 cells (immunoprecipitation, anti-phosphotyrosine blot); assay type: cell-based; set-up: endogenous in cells; PANC-1; settings: various doses
[3] = system: BxPC3 cells; assay: Time-lapse scratch wound cell-migration assay; assay type: cell-based; settings: 2.5 μM
Description: Cell-migration assay: Cells were cultured in 96-well ImageLock plates (Sartorius). Next day, wells were scratched using the WoundMaker (Sartorius). Subsequently, cells were washed twice with PBS and treated with the indicated compounds in RPMI-1640 complete media. Subsequently, cells were imaged every 6 h using IncuCyte S3 (Sartorius) and relative wound areas were analyzed using the algorithm of the imager cell migration software module.

[4] = molecular target: T1, EphA2; assay: Western blot of total EphA2 and pEphA2 S897 in PANC-1 cells; assay type: cell-based; set-up: endogenous in cells; host or cells: PANC-1
[5] = molecular target: T1, EphA2; assay: Western blot of total EphA2 and pEphA2 S897 in BxPC3 cells; assay type: cell-based; set-up: endogenous in cells; host or cells: BxPC3; PANC-1; settings: 3 hours treatment
[6] = system: BxPC3 cells; assay: Time-lapse scratch wound cell invasion assay (Matrigel); assay type: cell-based; settings: scratch wound through Matrigel, 2.5 μM
Description: Cell invasion assay: Matrigel (Corning) was diluted in serum-free RPMI-1640 media (1:100), 50 µL of the mixture was added to ImageLock plate and incubated at 37° C. for 2 h. Next, excess media were aspirated and cells in complete media were plated and left overnight in humidified cell culture incubator. The following day, cell culture plate was aspirated, scratched with the WoundMaker, and washed twice with PBS. Subsequently, the plate was coated with a mixture of Matrigel and cold serum-free RPMI-1640 (1:1) and left in the incubator to solidify for 30 min. Finally, 100 µL of 1.5× compound-media mixture was added to the plate at various concentrations. The healing of the scratches was imaged and calculated similar to the migration assay.

[7] = molecular target: T1, EphA2; assay: Immunofluorescence of EphA2 cellular localization in BxPC3 cells; assay type: cell-based; set-up: endogenous in cells; host or cells: BxPC3; PANC-1; settings: 30 min treatment, 1 μM 135H12
Description: FIG. 4A-D. Dimeric EphA2 agonists degrade EphA2 receptors in cancer cells. […] BxPC3 cell line was treated with the indicated doses for 3 hours, then cells were lysed and Western blot studies were performed. […] BxPC3 or PANC-1 cells were treated and lysed similar to the previous Western blot. […] EphrinA1-Fc is a clustered natural ligand and used as a positive control. […] Moreover, the receptor band disappeared after 1 hour of treatment. […] Cells were immunostained with EphA2 antibody (light) and nuclei were counterstained with DAPI (dark). […] Images were acquired using confocal Inverted Zeiss 880.
In chamber slides, cells were plated and allowed to adhere overnight in humidified cell culture incubators. The following day, cells were treated with the indicated ligands for 30 min. Subsequently, cells were washed with PBS and fixed with 4% Formaldehyde (Polysciences, Inc.), then blocked and permeabilized with 5% FBS and 0.3% Triton™ X-100 for 1 h. Next, wells were washed and stained with anti-EphA2 antibody, followed by three washes and further incubation with Alexafluor goat anti-mouse 488 secondary antibody (ThermoFisher). Cells were counterstained with DAPI and mounted with Prolong Diamond Antifade (ThermoFisher). Images were acquired with confocal microscope Zeiss 880 Airyscan and processed using Adobe Photoshop CC.

[8] = molecular target: T1, EphA2; assay: Covalent gel shift with EphA2; assay type: biochemical; settings: compounds incubated 10:1 for 2 hours at room temperature
Description: Covalent adduct formation of EphA2 with 147A5 and 147A6, respectively, were confirmed by covalent gel shift. Compounds were incubated 10:1 for 2 hours at room temperature.

T1 sequence (P29317 24-976): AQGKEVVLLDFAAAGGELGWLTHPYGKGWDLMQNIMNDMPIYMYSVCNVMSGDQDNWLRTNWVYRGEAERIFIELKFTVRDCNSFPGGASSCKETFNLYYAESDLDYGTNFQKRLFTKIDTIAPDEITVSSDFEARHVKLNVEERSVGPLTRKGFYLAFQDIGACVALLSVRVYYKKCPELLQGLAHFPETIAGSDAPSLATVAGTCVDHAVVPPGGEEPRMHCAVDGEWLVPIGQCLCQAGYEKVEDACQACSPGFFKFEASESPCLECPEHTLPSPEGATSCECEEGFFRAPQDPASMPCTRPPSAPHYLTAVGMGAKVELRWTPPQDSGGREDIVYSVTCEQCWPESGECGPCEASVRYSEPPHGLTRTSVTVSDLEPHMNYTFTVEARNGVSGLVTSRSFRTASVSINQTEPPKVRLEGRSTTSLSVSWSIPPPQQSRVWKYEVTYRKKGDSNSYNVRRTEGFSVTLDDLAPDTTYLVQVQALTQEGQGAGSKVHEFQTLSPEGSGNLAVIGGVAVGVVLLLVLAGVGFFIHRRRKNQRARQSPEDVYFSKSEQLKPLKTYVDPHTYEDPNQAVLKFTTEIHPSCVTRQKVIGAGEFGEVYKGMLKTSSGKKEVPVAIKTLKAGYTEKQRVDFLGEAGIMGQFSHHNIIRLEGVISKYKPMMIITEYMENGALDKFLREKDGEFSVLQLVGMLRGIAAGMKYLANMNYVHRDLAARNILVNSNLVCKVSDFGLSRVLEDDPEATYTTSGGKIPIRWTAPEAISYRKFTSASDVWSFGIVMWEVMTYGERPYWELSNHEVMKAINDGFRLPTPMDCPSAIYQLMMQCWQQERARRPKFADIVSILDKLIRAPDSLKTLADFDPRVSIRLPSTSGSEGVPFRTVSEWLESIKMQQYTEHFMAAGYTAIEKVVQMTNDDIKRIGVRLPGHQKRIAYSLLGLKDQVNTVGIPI
EphA2-LBD, sequence (P29317 28-206 limits assumed): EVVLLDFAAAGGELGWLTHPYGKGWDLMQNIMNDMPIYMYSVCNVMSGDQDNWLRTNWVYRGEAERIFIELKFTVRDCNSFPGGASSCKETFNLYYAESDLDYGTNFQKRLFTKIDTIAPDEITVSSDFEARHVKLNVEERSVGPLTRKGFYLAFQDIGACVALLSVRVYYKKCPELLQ

CC(C)[C@H](NC(=O)[C@H](CC(=O)O)NC(=O)[C@H](CC(=O)O)NC(=O)[C@@H]1CCCN1C(=O)[C@H](Cc1ccc(O)cc1)NC(=O)[C@H](C)NC(=O)[C@H](CN)NC(=O)COc1ccc(F)c(Cl)c1)C(=O)N1CCC[C@H]1C(=O)N[C@@H](Cc1ccccc1)C(=O)N[C@@H](CCCNC(=N)N)C(=O)N1CCC[C@H]1C(N)=O [135F11] ({Phenoxyacetyl(3-Cl,4-F)}-[Dap]AYPDDVPFRP-NH2)
IC50 [1]: > 200 µM

CC(C)[C@H](NC(=O)[C@H](CO)NC(=O)[C@H](CC(=O)O)NC(=O)[C@@H]1CCCN1C(=O)[C@H](Cc1ccc(O)cc1)NC(=O)[C@H](C)NC(=O)[C@H](CO)NC(=O)COc1ccc(F)c(Cl)c1)C(=O)N1C[C@H](O)C[C@H]1C(=O)N[C@@H](Cc1ccc(Cl)cc1)C(=O)N[C@@H](CCCNC(=N)N)C(=O)N1CCC[C@H]1C(N)=O [135G3, (4F,3ClPhOCH2CO)SAYPDSV(Hyp)(4ClPhe)RP-CONH2]
induction of EphA2 receptor phosphorylation [2]: remarkably increased cellular activity in inducing tyrosine receptor phosphorylation compared to YSA

COc1ccc(C[C@H](NC(=O)[C@H](C)NC(=O)[C@H](CC(C)C)NC(=O)c2oc3c(OC)c(OC)ccc3c2C)C(=O)N2CCC[C@H]2C(=O)N[C@@H](CC(=O)O)C(=O)N[C@@H](C)C(=O)N[C@H](C(=O)N2C[C@H](O)C[C@H]2C(=O)N[C@@H](Cc2ccc(Cl)cc2)C(=O)N[C@@H](CCCNC(=N)N)C(=O)N2CCC[C@H]2C(N)=O)C(C)C)cc1 [135H11, XLA(4MeTyr)PDAV(Hyp)(4ClPhe)RP-CONH2]
inhibition of cell migration [3]: inhibit cell migration | degradation of total EphA2 and dephosphorylation of pEphA2 S897 [4]: more effective than the monomer 123B9; also recorded: orders of magnitude more effective than 123B9 in causing EphA2 degradation and suppressing oncogenic pSer897-EphA2 | degradation of total EphA2 and dephosphorylation of pEphA2 S897 [5]: more effective than the monomer 123B9; also recorded: orders of magnitude more effective than 123B9 in causing EphA2 degradation and suppressing oncogenic pSer897-EphA2 | inhibition of cell invasion [6]: inhibited cell invasion; also recorded: equally effective in suppressing cell invasion at low micromolar concentration | EphA2 cellular localization [7]: located at the cell membrane; also recorded: fluorescence localized at the cell membrane

CC(C)[C@H](NC(=O)[C@H](CO)NC(=O)[C@H](CC(=O)O)NC(=O)[C@@H]1CCCN1C(=O)[C@H](Cc1ccc(O)cc1)NC(=O)[C@H](C)NC(=O)[C@H](CO)NC(=O)COc1ccc(F)c(Cl)c1)C(=O)N1C[C@H](O)C[C@H]1C(=O)N[C@@H](Cc1ccc(Cl)cc1)C(=O)N[C@@H](CCCNC(=N)N)C(=O)N1CCC[C@H]1C(=O)NCC(=O)NCCCC[C@H](NC(=O)CNC(=O)[C@@H]1CCCN1C(=O)[C@H](CCCNC(=N)N)NC(=O)[C@H](Cc1ccc(Cl)cc1)NC(=O)[C@@H]1C[C@@H](O)CN1C(=O)[C@@H](NC(=O)[C@H](CO)NC(=O)[C@H](CC(=O)O)NC(=O)[C@@H]1CCCN1C(=O)[C@H](Cc1ccc(O)cc1)NC(=O)[C@H](C)NC(=O)[C@H](CO)NC(=O)COc1ccc(F)c(Cl)c1)C(C)C)C(N)=O [135G4, [(4F,3ClPhOCH2CO)SAYPDSV(HYP)(4ClPhe)RPG]2-K-CONH2]
degradation of total EphA2 and dephosphorylation of pEphA2 S897 [5]: degraded total EphA2 receptor and phosphorylated pEphA2 S897 at nanomolar concentrations; also recorded: remarkably active in inducing receptor degradation and dephosphorylation of Ser897-EphA2 at sub-micromolar concentrations

(7-MethoxyBenzofuranoic)LAYPDAVP-Dap(3-FSB)-RP-CONH2 ({7‑MethoxyBenzofuranoic}-LAYPDAVP[Dap(3-FSB)]RP-NH2) [147A6]
covalent adduct formation with EphA2 [8]: confirmed

(7-MethoxyBenzofuranoic)LAYPDAVP-Dap(4-FSB)-RP-CONH2 ({7‑MethoxyBenzofuranoic}-LAYPDAVP[Dap(4-FSB)]RP-NH2; SMILES COc1cccc2cc(C(=O)N[C@@H](CC(C)C)C(=O)N[C@@H](C)C(=O)N[C@@H](Cc3ccc(O)cc3)C(=O)N3CCC[C@H]3C(=O)N[C@@H](CC(=O)O)C(=O)N[C@@H](C)C(=O)N[C@H](C(=O)N3CCC[C@H]3C(=O)N[C@@H](CNC(=O)c3ccc(S(=O)(=O)F)cc3)C(=O)N[C@@H](CCCNC(=N)N)C(=O)N3CCC[C@H]3C(N)=O)C(C)C)oc12) [147A5]
covalent adduct formation with EphA2 [8]: confirmed

B1: ephrinA1-Fc: clustered natural ligand and used as a positive control (protein)
chain: DRHIVFWNSSNPKFREEDYTVHVQLNDYLDIICPHYEDDSVADAAMERYTLYMVEHQEYVACQPQSKDQVRWNCNRPSAKHGPEKLSEKFQRFTPFILGKEFKEGHSYYYISKPIYHQESQCLKLKVTVNGKITHNPQAHVNPQEKRLQADDPEVQVLHSIGYS
modifications: left off: a dimerising Fc or GST
notes: clustered natural ligand and used as a positive control
EphA2 cellular localization [7]: punctuated fluorescence was observed in the cytoplasm
